Active and inactive are the calls of the source. The calls are words filed in the database; no cut-off is given here.
How the values were obtained:
NIH3T3 = assay: Growth inhibition of mouse NIH/3T3 cells expressing erB2 gene; type: functional, cell-based
MDA-MB-468 = assay: Induction of DNA damage in human MDA-MB-468 cells assessed as tail movements by comet assay; type: functional, cell-based
[1] = target: Epidermal growth factor receptor (Homo sapiens, UniProt P00533); assay: Inhibition of EGFR-mediated poly(L-glutamic acid L-tyrosine) phosphorylation
Chain of Epidermal growth factor receptor (P00533 whole entry): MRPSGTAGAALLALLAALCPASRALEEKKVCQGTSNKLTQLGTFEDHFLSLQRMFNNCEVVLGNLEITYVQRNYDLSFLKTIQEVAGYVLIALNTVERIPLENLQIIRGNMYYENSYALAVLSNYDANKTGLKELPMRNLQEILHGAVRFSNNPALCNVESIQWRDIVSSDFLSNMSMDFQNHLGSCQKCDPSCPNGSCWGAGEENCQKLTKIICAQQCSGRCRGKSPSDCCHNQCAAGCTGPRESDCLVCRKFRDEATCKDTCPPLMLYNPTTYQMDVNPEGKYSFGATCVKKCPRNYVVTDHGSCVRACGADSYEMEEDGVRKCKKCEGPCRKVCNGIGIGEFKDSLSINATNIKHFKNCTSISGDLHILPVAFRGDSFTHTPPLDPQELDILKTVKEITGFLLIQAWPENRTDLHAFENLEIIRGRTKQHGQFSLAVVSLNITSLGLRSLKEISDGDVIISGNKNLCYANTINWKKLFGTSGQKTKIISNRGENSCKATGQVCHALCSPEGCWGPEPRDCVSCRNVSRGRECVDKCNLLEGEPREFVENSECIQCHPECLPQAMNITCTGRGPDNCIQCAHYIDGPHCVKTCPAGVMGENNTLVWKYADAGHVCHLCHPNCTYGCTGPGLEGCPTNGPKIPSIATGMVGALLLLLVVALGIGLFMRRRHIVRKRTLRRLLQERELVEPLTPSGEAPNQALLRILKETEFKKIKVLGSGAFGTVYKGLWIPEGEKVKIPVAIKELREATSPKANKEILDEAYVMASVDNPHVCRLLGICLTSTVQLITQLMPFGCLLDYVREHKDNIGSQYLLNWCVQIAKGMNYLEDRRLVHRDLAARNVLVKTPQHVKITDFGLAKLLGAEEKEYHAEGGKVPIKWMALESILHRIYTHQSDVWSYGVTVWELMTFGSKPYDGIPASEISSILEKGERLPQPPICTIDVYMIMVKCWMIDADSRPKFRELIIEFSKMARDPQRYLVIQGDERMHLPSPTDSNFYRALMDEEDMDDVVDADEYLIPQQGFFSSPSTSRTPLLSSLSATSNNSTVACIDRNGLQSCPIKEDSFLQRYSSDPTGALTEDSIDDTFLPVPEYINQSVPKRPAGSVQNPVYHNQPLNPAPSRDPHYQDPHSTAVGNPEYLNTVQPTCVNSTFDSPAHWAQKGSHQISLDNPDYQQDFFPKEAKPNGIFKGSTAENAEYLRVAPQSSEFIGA

[2] = Stability assessed as degradation to FD105 at 37 degC by fluorescence; type: physicochemical

SMILES	IC50 (NIH3T3)	Activity (MDA-MB-468)	IC50 [1]	Stability [2]
C=COC(=O)N(C)/N=N/c1ccc2ncnc(Nc3cccc(Cl)c3)c2c1	2370 nM	inactive	720 nM	Stable
CC(=O)OCN(C)/N=N/c1ccc2ncnc(Nc3cccc(Cl)c3)c2c1			240 nM	Unstable
CN(/N=N/c1ccc2ncnc(Nc3cccc(Cl)c3)c2c1)C(=O)OCCl	4940 nM	Dose-dependent effect	390 nM	
CN(/N=N/c1ccc2ncnc(Nc3cccc(Cl)c3)c2c1)C(=O)Oc1ccc([N+](=O)[O-])cc1	3790 nM	Dose-dependent effect	770 nM	Stable
CC(=O)OCOC(=O)N(C)/N=N/c1ccc2ncnc(Nc3cccc(Cl)c3)c2c1	1500 nM	Dose-dependent effect	630 nM	Stable
C=COC(=O)N(CCN(C)C)/N=N/c1ccc2ncnc(Nc3cccc(Cl)c3)c2c1	2280 nM	Dose-dependent effect	180 nM	
